The values that follow come from patent US8354402B2, “Polyarylcarboxamides useful as lipid lowering agents” (Janssen Pharmaceutica N.V., priority 2000, dated 2013).

Structures can show the parent of a compound that is named as a salt.

The first assay concerns ApoB secretion, HepG2 cells. Description: Quantification of the secretion of ApoB (HepG2 cells, immunoprecipitation, scintillation counting). Particulars: 24 hours of incubation, listed as 37. It counts as cell-based. The gist of the method:
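HepG2 cells in MEM Rega 3 with 10% FCS were treated at 70% confluency with compound (DMSO 0.4% final) for 24 h. Medium ApoB was immunoprecipitated with sheep anti-apoB then rabbit anti-sheep antibody (24 h each, 8° C), and pellet radioactivity was counted by liquid scintillation to give IC50.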
As a reminder, the pIC50 is the negative decadic logarithm of the IC50, by convention in mol/L. Low values mean a high IC50, high ones a low IC50. Regarding `COC(=O)C(c1ccccc1)C1CCN(c2ccc(NC(=O)c3ccccc3-c3ccc(C(F)(F)F)cc3)cc2)CC1` (stereo not drawn) [Co. No. 37, methyl α-phenyl-1-[4-[[[4′-(trifluoromethyl)[1,1′-biphenyl]-2-yl]carbonyl]amino]phenyl]-4-piperidineacetate trifluoroacetate (1:1)], the negative-log IC50 (pIC50) stood at 7.507.

The same assay, now with this note: Homo sapiens, 24 hours of incubation.
Usually IC50 stands for the concentration needed to halve the response being measured. A high value points to weaker potency. As to `CC(=O)N(c1ccccc1)C1CCN(c2ccc(NC(=O)c3ccccc3-c3ccc(C(F)(F)F)cc3)cc2)CC1` [Co. No. 253], the IC50 is 130 nM.
In turn, `CCCNC(=O)C(c1ccccc1)C1CCN(c2ccc(NC(=O)c3ccccc3-c3ccc(C(F)(F)F)cc3)cc2)CC1` (stereo not drawn) [Co. No. 38, N-[4-[4-[2-oxo-1-phenyl-2-(propylamino)ethyl]-1-piperidinyl]phenyl]-4′-(trifluoromethyl)-[1,1′-biphenyl]-2-carboxamide trifluoroacetate (1:1)] showed an IC50 of 6.62 nM.

The assay is the same for the next values; noted with them: Homo sapiens, HepG2, 24 h, 24 hours of incubation.
In turn, `CCNC(=O)C(c1ccccc1)N1CCN(c2ccc(NC(=O)c3ccccc3-c3ccc(C(F)(F)F)cc3)c(C)c2)CC1` (stereo not drawn) [Co. No. 215] showed a half-maximal inhibitory concentration (IC50) of less than 30 nM.
Same read-out and setting: with `CC(C)CCOC(=O)C(c1ccccc1)N1CCC(c2ccc(NC(=O)c3ccccc3-c3ccc(C(F)(F)F)cc3)cc2)CC1` (stereo not drawn) [Co. No. 227] the figure was 187 nM; with `CCNC(=O)C(c1ccccc1)N1CCC(c2ccc(NC(=O)c3ccccc3-c3ccc(C(F)(F)F)cc3)cc2)CC1` (stereo not drawn) [Co. No. 69, N-[4-[1-[2-(ethylamino)-2-oxo-1-phenylethyl]-4-piperidinyl]phenyl]-4′-(trifluoromethyl)-[1,1′-biphenyl]-2-carboxamide], 8.89 nM.
Still for that read-out and setting: with `O=C(Nc1ccc(N2CCC(C(C(=O)Oc3ccccc3)c3ccccc3)CC2)cc1)c1ccccc1-c1ccc(C(F)(F)F)cc1` (stereo not drawn) [Co. No. 175] the figure was less than 30 nM.
On the same count and under the same terms, the figure for `CCNC(=O)C(c1ccccc1)N1CCN(c2ccc(NC(=O)c3cc(C)ccc3-c3ccc(C(F)(F)F)cc3)cc2)CC1` (stereo not drawn) [Co. No. 198] is 73.1 nM; for `Cc1cccc(-c2ccccc2C(=O)Nc2ccc(N3CCC(C(C(=O)Nc4ccccc4)c4ccccc4)CC3)cc2)c1` (stereo not drawn) [Co. No. 112] it is 434 nM; for `O=C(Nc1ccc(N2CCN(C(C(=O)Oc3ccccc3)c3ccccc3)CC2)cc1)c1ccccc1-c1ccc(C(F)(F)F)cc1` (stereo not drawn) [Co. No. 158] it is 21.3 nM.
`COC(=O)C(c1ccccc1)C1CCN(c2ccc(NC(=O)c3cccc(C)c3-c3ccc(C(C)C)cc3)cc2)CC1` (stereo not drawn) [Co. No. 235] gave a concentration for half-maximal inhibition (IC50) of less than 30 nM.
On the same count and under the same terms, with `CCNC(=O)C(c1ccccc1)N1CCN(c2ccc(NC(=O)c3ccccc3-c3ccc(C(F)(F)F)cc3)cc2Cl)CC1` (stereo not drawn) [Co. No. 213] the figure was less than 30 nM.
Still for that read-out and setting: the figure for `CCCNC(=O)C(c1ccccc1)C1CCN(c2ccc(NC(=O)c3ccccc3-c3cccc(C(F)(F)F)c3)cc2)CC1` (stereo not drawn) [Co. No. 48] is 634 nM; for `CCCCCNC(=O)C(CN1CCN(c2ccc(NC(=O)c3ccccc3-c3ccc(C(F)(F)F)cc3)cc2)CC1)c1ccccc1` (stereo not drawn) [Co. No. 65] it is 240 nM; for `O=C(Nc1ccc(N2CCC(C(C(=O)NCc3ccccc3)c3ccccc3)CC2)cc1)c1cccc2c1Cc1ccccc1-2` (stereo not drawn) [Co. No. 4] it is not below 3000 nM.
The same measure, in the same setting: with `COc1ccccc1-c1ccccc1C(=O)Nc1ccc(N2CCC(C(C(=O)NCc3ccccc3)c3ccccc3)CC2)cc1` (stereo not drawn) [Co. No. 101] the figure was 207 nM; with `COC(=O)C(c1ccccc1)N1CCN(c2ccc(NC(=O)c3ccc(Cl)cc3-c3ccc(C(F)(F)F)cc3)cc2)CC1` (stereo not drawn) [Co. No. 192], 158 nM.
`CCC(CC)OC(=O)C(c1ccccc1)N1CCC(c2ccc(NC(=O)c3ccccc3-c3ccc(C(F)(F)F)cc3)cc2)CC1` (stereo not drawn) [Co. No. 224] gave an IC50 of 557 nM.
Still for that read-out and setting: the figure for `O=C(Nc1ccc(N2CCN(C(C(=O)Nc3ccccc3)c3ccccc3)CC2)cc1)c1ccccc1-c1ccccc1` (stereo not drawn) [Co. No. 145] is 185 nM; for `CCNC(=O)C(c1ccccc1)C1CCN(c2ccc(NC(=O)c3ccccc3-c3ccccc3)cc2)CC1` (stereo not drawn) [Co. No. 180] it is 114 nM; for `Nc1cccc(-c2ccccc2C(=O)Nc2ccc(N3CCC(C(C(=O)NCc4ccccc4)c4ccccc4)CC3)cc2)c1` (stereo not drawn) [Co. No. 98] it is 57.9 nM.
Still for that read-out and setting: with `O=C(Nc1ccc(N2CCN(CC(C(=O)NCC(F)(F)F)c3ccccc3)CC2)cc1)c1ccccc1-c1ccc(C(F)(F)F)cc1` (stereo not drawn) [Co. No. 66] the figure was 79.6 nM; with `COC(=O)C(c1ccccc1)N1CCN(c2ccc(NC(=O)c3ccccc3-c3ccc(C(F)(F)F)cc3)c(C(F)(F)F)c2)CC1` (stereo not drawn) [Co. No. 206], 783 nM; with `O=C(Nc1ccc(N2CCC(C(C(=O)Nc3ccccc3)c3ccccc3)CC2)cc1)c1ccccc1-c1ccccc1Cl` (stereo not drawn) [Co. No. 115], 1710 nM.
On to `CCNC(=O)C(c1ccccc1)C1CCN(c2ccc(NC(=O)c3ccccc3-c3ccc(OC)cc3)cc2)CC1` (stereo not drawn) [Co. No. 93], for which the IC50 is 72.3 nM.
In turn, `CCNC(=O)C(c1ccccc1)C1CCN(c2ccc(NC(=O)c3ccccc3-c3cccc(N)c3)cc2)CC1` (stereo not drawn) [Co. No. 89] had an IC50 of 363 nM.
As to `O=C(Nc1ccc(N2CCC(C(C(=O)Nc3ccccc3)c3ccccc3)CC2)cc1)c1ccccc1-c1cc(Cl)cc(Cl)c1` (stereo not drawn) [Co. No. 106], half-maximal inhibition (IC50) required 251 nM.
Same read-out and setting: the figure for `COC(=O)C(c1ccccc1)N1CCN(c2ccc(NC(=O)c3ccccc3-c3ccc(C(F)(F)F)cc3)cc2C)CC1` (stereo not drawn) [Co. No. 211] is 19.9 nM.
The same measure, in the same setting: with `O=C(Nc1ccc(N2CCC(C(C(=O)Nc3ccccc3)c3ccccc3)CC2)cc1)c1cccc2c1-c1ccccc1C2` (stereo not drawn) [Co. No. 129] the figure was 2770 nM; with `COC(=O)C(c1ccc(Br)cc1)N1CCN(c2ccc(NC(=O)c3ccccc3-c3ccc(C(F)(F)F)cc3)cc2)CC1` (stereo not drawn) [Co. No. 261], 743 nM.
On the same count and under the same terms, the figure for `CCOC(=O)C(c1ccccc1)C1CCN(c2ccc(NC(=O)c3ccccc3-c3ccc(C(F)(F)F)cc3)cc2)CC1` (stereo not drawn) [Co. No. 243] is less than 30 nM; for `O=C(Nc1ccc(N2CCC(C(C(=O)Nc3ccccc3)c3ccccc3)CC2)cc1)c1ccccc1-c1ccc(C(F)(F)F)cc1` (stereo not drawn) [Co. No. 36] it is not above 30 nM.
For the compound `O=C(Nc1ccc(N2CCC(C(C(=O)Nc3ccccc3)c3ccccc3)CC2)cc1)c1ccccc1-c1ccc(F)cc1` (stereo not drawn) [Co. No. 114], the IC50 was 836 nM.
On the same count and under the same terms, the figure for `O=C(Nc1ccc(N2CCC(C(C(=O)Nc3ccccc3)c3ccccc3)CC2)cc1)c1ccccc1Cc1ccccc1` (stereo not drawn) [Co. No. 35] is not below 3000 nM.
Same read-out and setting: with `O=C(Nc1ccc(N2CCC(C(C(=O)Nc3ccccc3)c3ccccc3)CC2)cc1)c1ccccc1-c1ccc(Cl)c(Cl)c1` (stereo not drawn) [Co. No. 110] the figure was 158 nM; with `COC(=O)C(c1ccccc1)N1CCN(c2ccc(NC(=O)c3cccc(C)c3-c3ccc(C(F)(F)F)cc3)cc2)CC1` (stereo not drawn) [Co. No. 190], 6.41 nM; with `O=C(Nc1ccc(N2CCN(C(C(=O)NCc3cccnc3)c3ccccc3)CC2)cc1)c1ccccc1-c1ccc(C(F)(F)F)cc1` (stereo not drawn) [Co. No. 59], not above 30 nM.
The same measure, in the same setting: the figure for `CCNC(=O)C(c1ccccc1)C1CCN(c2ccc(NC(=O)c3ccccc3-c3ccccc3C)cc2)CC1` (stereo not drawn) [Co. No. 85, N-[4-[4-[2-(ethylamino)-2-oxo-1-phenylethyl]-1-piperidinyl]phenyl]-2′-methyl-[1,1′-biphenyl]-2-carboxamide] is 129 nM.
`COC(=O)C(c1ccccc1)C1CCN(c2ccc(NC(=O)c3ccccc3-c3ccccc3)cc2)CC1` (stereo not drawn) [Co. No. 157] had a half-maximal inhibitory concentration (IC50) of 107 nM.
Same read-out and setting: with `CCCNC(=O)C(c1ccccc1)C1CCN(c2ccc(NC(=O)c3ccccc3-c3ccccc3C(F)(F)F)cc2)CC1` (stereo not drawn) [Co. No. 130] the figure was 360 nM; with `CCNC(=O)C(c1ccccc1)C1CCN(c2ccc(NC(=O)c3ccccc3-c3ccc(Cl)cc3)cc2)CC1` (stereo not drawn) [Co. No. 91], 8.69 nM; with `O=C(Nc1ccc(N2CCC(C(C(=O)Nc3ccccc3)c3ccccc3)CC2)cc1)c1ccccc1-c1ccccc1` (stereo not drawn) [Co. No. 30], 165 nM.
On the same count and under the same terms, with `CCCNC(=O)C(c1ccccc1)C1CCN(c2ccc(NC(=O)c3ccccc3Oc3ccccc3)cc2)CC1` (stereo not drawn) [Co. No. 19] the figure was 264 nM; with `CC(C)NC(=O)C(c1ccccc1)N1CCN(c2ccc(NC(=O)c3ccccc3-c3ccc(C(F)(F)F)cc3)cc2)CC1` (stereo not drawn) [Co. No. 56], not above 30 nM; with `CCCNC(=O)C(c1ccccc1)C1CCN(c2ccc(NC(=O)c3ccccc3-c3ccccc3)cc2)CC1` (stereo not drawn) [Co. No. 13], not above 30 nM.
Same read-out and setting: the figure for `CC(C)=CCOC(=O)C(c1ccccc1)C1CCN(c2ccc(NC(=O)c3ccccc3-c3ccc(C(F)(F)F)cc3)cc2)CC1` (stereo not drawn) [Co. No. 245] is 525 nM.
`COC(=O)C(c1ccccc1)N1CCN(c2ccc(NC(=O)c3c(F)cccc3-c3ccc(C(F)(F)F)cc3)cc2)CC1` (stereo not drawn) [Co. No. 187] had an IC50 of 41.1 nM.
The same measure, in the same setting: the figure for `CCNC(=O)C(c1ccc(F)cc1)C1CCN(c2ccc(NC(=O)c3ccccc3-c3ccc(C(C)(C)C)cc3)cc2)CC1` (stereo not drawn) [Co. No. 257] is 13.9 nM; for `O=C(Nc1ccc(C2CCN(C(C(=O)OCc3ccccc3)c3ccccc3)CC2)cc1)c1ccccc1-c1ccc(C(F)(F)F)cc1` (stereo not drawn) [Co. No. 151] it is 612 nM; for `C=CCOC(=O)C(c1ccccc1)N1CCN(c2ccc(NC(=O)c3ccccc3-c3ccccc3)cc2)CC1` (stereo not drawn) [Co. No. 146] it is 341 nM.
For the compound `CCCNC(=O)C(c1ccccc1)C1CCN(c2ccc(NC(=O)c3ccccc3-c3ccc(F)cc3F)cc2)CC1` (stereo not drawn) [Co. No. 84, 2′,4′-difluoro-N-[4-[4-[2-oxo-1-phenyl-2-(propylamino)ethyl]-1-piperidinyl]phenyl]-[1,1′-biphenyl]-2-carboxamide], the IC50 was 79.4 nM.
Still for that read-out and setting: the figure for `CCCNC(=O)C(c1ccccc1)C1CCN(c2ccc(NC(=O)c3ccccc3-c3ccc(F)cc3)cc2)CC1` (stereo not drawn) [Co. No. 44] is 1040 nM.
The same measure, in the same setting: with `O=C(Nc1ccc(C2CCN(C(C(=O)OCc3ccccc3)c3ccccc3)CC2)cc1)c1ccccc1-c1ccccc1` (stereo not drawn) [Co. No. 153] the figure was 1550 nM.
The same measure, in the same setting: the figure for `COC(=O)C(c1ccccc1)N1CC=C(c2ccc(NC(=O)c3ccccc3-c3ccccc3)cc2)CC1` (stereo not drawn) [Co. No. 156] is 122 nM.
